Measurements published in patent US11643421B2, “Process for the preparation of tricyclic PI3K inhibitor compounds and methods for using the same for the treatment of cancer” (priority 2015, dated 2023).

What was measured:
[1] = In vivo pharmacokinetics IV and PO; design: species or system beagle dogs; settings: Dog
Experimental: The hepatocyte stability of compound IIIat was evaluated across preclinical species. Certain in vivo pharmacokinetic parameters were also evaluated. […] Male Sprague-Dawley rats, female CD-1 mice, male cynomolgus monkeys and beagle dogs were dosed intravenously with 1 mg/kg of compound IIIat prepared in 60% PEG400/10% Ethanol. Compound IIIat was administered orally (PO) at the indicated dose in 0.5% methylcellulose with 0.2% Tween 80 (MCT).

human P-gp (MDR1) = biological target: T1, human P-gp (MDR1) (Homo sapiens, UniProt P08183); assay: Transport assay in MDR1-MDCKI cell monolayers; type: in vitro ADME; settings: MDCK-MDR1, 2-hour incubation
T1 construct: host or cells: MDR1-MDCKI (canine kidney)
Experimental: (§1) MDR1-MDCKI cells were licensed from the NCI (National Cancer Institute, Bethesda, Md.) and Bcrp1-MDCKII, BCRP-MDCKII and Mdr1a-LLC-PK1 cells were obtained from the Netherlands Cancer Institute (Amsterdam. The Netherlands). […] The compound was dissolved in transport buffer consisting of Hank's balanced salt solution (HBSS) with 10 mM HEPES (Invitrogen Corporation, Grand Island, N.Y.). Lucifer Yellow (Sigma-Aldrich, St. Louis, Mo.) was used as the paracellular and monolayer integrity marker. […] The efflux ratio (ER) was calculated (Papp, B-A/Papp, A-B).

P-gp and BCRP = assay: Transport assays in cell monolayers, overall; type: in vitro ADME
Experimental: as §1

GS2 intracranial tumors = assay: Efficacy in GS2 intracranial model; type: in vivo, mice; settings: 15 mg/kg PO daily for 4 weeks, MRI, p<0.01
Text: These U87 and GS2 models are PTEN-deficient, with the GS2 cell line presenting a copy number loss at the PTEN locus (Gunther H S, et al.) with no detectable PTEN protein by western blot (Carlson […], Schroeder […]., “Establishment, maintenance and in vitro and in vivo applications of primary human glioblastoma multiforme (GBM) xenograft models for translational biology studies and drug discovery”, Curr Protoc Pharmacol. 2011; Chapter 14: Unit 14 16). The identity of the two cell lines was confirmed by STR profiling (DNA Diagnostics Center) using cells within 5 passages of those utilized for in vivo studies. […] The differences between treatment groups were evaluated using Student's t test in Prism (Prism 5, GraphPad). […] Body temperature was continuously monitored using a rectal probe and was maintained at 37° C. by a heated-air flow system regulated by in-house LabVIEW controller software. A T2-weighted fast spin echo, multi-slice (FSEMS) sequence was used to detect lesions by MRI. 12-20 axial 0.5-0.8 mm-thick slices were acquired with a 20×20 mm field of view (FOV), and 128×128 matrix, zero-filled to 256×256 mages. TR=3500-4000 ms, TE=9-10 ms, ETL=8, k-zero=4, NEX=8. Tumor volumes were calculated from the T2-weighted FSEMS images using an intensity threshold based region growing tool in MRVision software. […]

pS6 = assay: PI3K pathway modulation in GS2 tumors, western blot; type: in vivo, mice; settings: 15 mg/kg PO daily 4 weeks
[2] = Solubility in mono- and ternary-solvent systems; type: physicochemical; settings: 50° C.
CDK5/p25 = CDK5/p25 (Homo sapiens, UniProt Q00535); assay: biochemical; settings: read-out: % inhib
CK1_gamma3 = CK1_gamma3 (Homo sapiens, UniProt Q9Y6M4); assay: biochemical; settings: read-out: % inhib
CamKIV = CamKIV (Homo sapiens, UniProt Q16566); assay: biochemical; settings: read-out: % inhib
EphA2 = EphA2 (Homo sapiens, UniProt P29317); assay: biochemical; settings: read-out: % inhib
Flt1 = Flt1 (Homo sapiens, UniProt P17948); assay: biochemical; settings: read-out: % inhib
GSK3_beta = GSK3_beta (Homo sapiens, UniProt P49841); assay: biochemical; settings: read-out: % inhib
MST2 = MST2 (Homo sapiens, UniProt Q13188); assay: biochemical; settings: read-out: % inhib
PAK2 = PAK2 (Homo sapiens, UniProt Q13177); assay: biochemical; settings: read-out: % inhib
Ron = Ron (Homo sapiens, UniProt Q04912); assay: biochemical; settings: read-out: % inhib

CK1_gamma3, sequence (Q9Y6M4 whole entry): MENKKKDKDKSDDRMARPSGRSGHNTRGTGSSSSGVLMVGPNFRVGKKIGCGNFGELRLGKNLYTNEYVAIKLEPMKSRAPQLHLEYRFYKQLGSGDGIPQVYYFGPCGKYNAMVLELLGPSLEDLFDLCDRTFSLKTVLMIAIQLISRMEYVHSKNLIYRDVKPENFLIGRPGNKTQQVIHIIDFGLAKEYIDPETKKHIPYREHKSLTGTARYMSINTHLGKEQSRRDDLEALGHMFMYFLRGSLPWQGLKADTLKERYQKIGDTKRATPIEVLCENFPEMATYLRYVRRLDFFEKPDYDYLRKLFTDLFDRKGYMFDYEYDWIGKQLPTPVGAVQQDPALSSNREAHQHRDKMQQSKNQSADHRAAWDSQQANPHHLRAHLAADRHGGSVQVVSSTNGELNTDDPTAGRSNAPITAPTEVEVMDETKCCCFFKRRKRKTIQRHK
PAK2, sequence (Q13177 whole entry): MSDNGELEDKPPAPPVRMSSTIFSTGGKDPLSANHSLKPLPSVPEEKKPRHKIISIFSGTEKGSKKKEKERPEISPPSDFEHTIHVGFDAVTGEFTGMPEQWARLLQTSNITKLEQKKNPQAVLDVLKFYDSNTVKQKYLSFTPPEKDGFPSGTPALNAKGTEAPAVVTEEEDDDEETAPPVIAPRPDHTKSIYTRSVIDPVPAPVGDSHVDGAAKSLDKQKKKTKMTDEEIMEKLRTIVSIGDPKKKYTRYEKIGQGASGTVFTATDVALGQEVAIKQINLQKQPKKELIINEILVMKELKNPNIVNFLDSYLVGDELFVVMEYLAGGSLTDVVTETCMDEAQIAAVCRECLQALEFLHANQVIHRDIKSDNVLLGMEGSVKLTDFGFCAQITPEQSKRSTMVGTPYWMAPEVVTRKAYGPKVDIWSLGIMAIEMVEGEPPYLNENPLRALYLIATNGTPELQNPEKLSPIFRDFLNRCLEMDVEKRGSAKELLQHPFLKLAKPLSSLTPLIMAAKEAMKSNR
GSK3_beta, sequence (P49841 whole entry, species assumed): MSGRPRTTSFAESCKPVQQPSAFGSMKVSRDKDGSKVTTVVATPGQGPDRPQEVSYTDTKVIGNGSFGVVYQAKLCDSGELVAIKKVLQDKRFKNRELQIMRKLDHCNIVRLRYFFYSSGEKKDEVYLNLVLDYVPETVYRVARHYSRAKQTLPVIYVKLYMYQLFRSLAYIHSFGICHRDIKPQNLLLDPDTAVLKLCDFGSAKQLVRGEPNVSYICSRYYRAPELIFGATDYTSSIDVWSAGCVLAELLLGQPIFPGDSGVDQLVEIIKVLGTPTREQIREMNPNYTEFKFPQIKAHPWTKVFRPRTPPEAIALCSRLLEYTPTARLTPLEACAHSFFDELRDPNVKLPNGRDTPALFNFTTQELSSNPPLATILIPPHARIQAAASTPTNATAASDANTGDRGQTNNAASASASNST
Flt1, sequence (P17948 27-1338): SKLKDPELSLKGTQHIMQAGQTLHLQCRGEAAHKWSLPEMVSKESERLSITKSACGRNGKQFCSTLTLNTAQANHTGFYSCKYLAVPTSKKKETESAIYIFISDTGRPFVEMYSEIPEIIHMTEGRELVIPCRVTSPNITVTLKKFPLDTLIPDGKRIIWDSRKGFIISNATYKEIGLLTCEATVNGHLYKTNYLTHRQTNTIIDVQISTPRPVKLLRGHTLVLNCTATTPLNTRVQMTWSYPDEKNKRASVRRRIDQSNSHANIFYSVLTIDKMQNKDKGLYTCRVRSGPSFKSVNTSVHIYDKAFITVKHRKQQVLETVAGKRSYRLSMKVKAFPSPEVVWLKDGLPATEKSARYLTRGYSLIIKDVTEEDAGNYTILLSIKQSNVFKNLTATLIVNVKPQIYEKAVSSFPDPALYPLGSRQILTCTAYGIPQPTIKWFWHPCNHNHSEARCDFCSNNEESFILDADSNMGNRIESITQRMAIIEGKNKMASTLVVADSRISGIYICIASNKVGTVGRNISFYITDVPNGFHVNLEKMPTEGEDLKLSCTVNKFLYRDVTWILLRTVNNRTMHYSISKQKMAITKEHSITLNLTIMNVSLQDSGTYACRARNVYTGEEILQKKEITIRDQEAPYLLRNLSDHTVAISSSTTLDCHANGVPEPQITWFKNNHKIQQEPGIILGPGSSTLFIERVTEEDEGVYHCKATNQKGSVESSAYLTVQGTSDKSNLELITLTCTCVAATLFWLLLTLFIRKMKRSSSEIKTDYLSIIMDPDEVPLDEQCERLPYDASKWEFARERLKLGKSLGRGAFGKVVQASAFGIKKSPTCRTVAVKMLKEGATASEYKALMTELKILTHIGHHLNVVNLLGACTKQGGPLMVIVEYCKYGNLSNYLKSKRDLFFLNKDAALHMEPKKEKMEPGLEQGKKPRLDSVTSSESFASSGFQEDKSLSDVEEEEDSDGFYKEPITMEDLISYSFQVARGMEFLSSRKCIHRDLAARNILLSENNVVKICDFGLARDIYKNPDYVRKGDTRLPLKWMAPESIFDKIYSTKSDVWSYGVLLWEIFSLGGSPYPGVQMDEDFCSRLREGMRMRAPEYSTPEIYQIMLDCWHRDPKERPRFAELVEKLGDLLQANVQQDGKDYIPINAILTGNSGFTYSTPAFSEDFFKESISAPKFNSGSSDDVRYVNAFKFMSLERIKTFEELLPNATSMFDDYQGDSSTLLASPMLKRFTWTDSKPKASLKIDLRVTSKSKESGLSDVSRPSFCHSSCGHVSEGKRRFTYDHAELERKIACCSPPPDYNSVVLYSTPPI
T1 sequence (P08183 whole entry): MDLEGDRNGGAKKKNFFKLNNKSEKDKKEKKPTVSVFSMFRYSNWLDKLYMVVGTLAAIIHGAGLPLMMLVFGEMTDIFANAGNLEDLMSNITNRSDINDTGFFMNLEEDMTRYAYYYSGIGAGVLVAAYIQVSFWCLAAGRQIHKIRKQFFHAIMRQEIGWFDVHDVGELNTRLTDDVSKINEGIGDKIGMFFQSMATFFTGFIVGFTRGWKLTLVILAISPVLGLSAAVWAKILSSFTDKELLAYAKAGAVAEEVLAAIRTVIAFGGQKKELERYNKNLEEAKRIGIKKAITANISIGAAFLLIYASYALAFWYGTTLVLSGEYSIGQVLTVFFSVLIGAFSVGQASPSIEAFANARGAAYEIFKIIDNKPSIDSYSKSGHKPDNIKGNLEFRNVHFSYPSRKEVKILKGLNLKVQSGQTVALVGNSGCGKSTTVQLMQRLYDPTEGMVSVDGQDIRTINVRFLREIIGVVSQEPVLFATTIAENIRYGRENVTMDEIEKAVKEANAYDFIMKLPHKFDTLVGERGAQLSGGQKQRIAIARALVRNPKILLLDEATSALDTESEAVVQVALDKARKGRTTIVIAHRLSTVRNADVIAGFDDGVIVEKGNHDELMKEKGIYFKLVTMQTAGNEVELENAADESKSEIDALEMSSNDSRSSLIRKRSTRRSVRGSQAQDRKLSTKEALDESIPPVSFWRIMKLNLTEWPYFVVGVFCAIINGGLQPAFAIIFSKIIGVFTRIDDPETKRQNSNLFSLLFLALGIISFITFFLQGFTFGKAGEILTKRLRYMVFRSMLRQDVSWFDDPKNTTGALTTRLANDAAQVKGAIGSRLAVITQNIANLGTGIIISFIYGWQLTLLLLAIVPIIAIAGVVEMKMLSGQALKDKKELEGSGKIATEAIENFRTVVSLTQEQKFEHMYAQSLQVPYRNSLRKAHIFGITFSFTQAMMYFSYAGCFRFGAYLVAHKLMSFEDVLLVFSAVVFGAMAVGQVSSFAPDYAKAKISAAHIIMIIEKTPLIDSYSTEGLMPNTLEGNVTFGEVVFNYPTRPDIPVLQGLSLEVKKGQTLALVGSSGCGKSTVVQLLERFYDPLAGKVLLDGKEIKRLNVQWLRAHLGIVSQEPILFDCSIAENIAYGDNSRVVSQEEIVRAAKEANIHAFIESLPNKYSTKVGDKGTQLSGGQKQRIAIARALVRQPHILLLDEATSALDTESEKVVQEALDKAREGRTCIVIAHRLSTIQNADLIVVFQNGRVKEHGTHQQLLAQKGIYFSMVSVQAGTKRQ
MST2, sequence (Q13188 whole entry, species assumed): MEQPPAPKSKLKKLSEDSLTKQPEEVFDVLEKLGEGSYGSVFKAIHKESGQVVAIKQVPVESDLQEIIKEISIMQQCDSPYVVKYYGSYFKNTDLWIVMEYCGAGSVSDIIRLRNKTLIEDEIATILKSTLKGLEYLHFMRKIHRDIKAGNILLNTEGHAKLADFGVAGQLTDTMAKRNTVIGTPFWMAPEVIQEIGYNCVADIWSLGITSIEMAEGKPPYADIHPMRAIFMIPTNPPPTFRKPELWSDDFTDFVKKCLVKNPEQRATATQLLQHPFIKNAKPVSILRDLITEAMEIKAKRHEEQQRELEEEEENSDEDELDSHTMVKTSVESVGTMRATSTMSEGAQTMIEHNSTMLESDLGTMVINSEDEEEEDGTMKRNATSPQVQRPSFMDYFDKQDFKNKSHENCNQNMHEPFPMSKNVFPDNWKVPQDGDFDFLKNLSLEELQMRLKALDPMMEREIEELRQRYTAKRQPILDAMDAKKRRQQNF
CamKIV, sequence (Q16566 whole entry): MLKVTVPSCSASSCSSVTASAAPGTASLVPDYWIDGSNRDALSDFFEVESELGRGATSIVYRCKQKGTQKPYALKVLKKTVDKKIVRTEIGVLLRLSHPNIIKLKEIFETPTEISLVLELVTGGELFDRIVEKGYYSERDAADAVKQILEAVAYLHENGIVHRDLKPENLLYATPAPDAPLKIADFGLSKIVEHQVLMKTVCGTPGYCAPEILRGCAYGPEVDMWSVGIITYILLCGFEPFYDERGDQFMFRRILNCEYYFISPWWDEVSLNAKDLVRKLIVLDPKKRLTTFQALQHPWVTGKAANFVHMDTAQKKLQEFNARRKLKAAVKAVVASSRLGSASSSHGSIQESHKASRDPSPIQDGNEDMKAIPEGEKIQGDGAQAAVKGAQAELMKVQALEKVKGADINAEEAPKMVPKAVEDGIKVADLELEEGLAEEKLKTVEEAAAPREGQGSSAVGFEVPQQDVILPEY

CC1(C)OCCn2c1nc1c(N3CCOCC3)nc(-c3cnc(N)nc3)nc12 [GDC-0084, 5-(6,6-dimethyl-4-morpholino-8,9-dihydro-6H-[1,4]oxazino[3,4-e]purin-2-yl)pyrimidin-2-amine]
AUC ([1]; PO 2 mg/kg in MCT): 1.6 μm·h | Cmax ([1]; PO 2 mg/kg in MCT): 0.2 μm | clearance ([1]; beagle, plasma, IV 1 mg/kg, read-out: In vivo Cl): 26 mL/min/kg | Vd ([1]; beagle, plasma, IV 1 mg/kg, read-out: Vss): 3 L/kg | bioavailability ([1]; beagle, plasma, PO 2 mg/kg in MCT): 40% | Papp A→B at 2 h, 5 μM (human P-gp (MDR1)): 13.5 ± 0.9 ×10⁻⁶ cm/s | substrate of efflux transporters (P-gp and BCRP; efflux ratios in MDCK or LLC-PK1 transfected cells): poor substrate of the efflux transporters P-gp and BCRP | apparent permeability (Papp), in words (P-gp and BCRP; transfected MDCK and LLC-PK1 cells): high and comparable to that of metoprolol | GS2 tumors smaller than control group (GS2 intracranial tumors): ≈ 40% | Suppression of pS6 in GS2 tumors (pS6; 2 hours after final administration): 35% | pS6 level in GS2 tumors (pS6; 8 hours post-dose): back to baseline levels | Solubility ([2]; DMF): 0.9 wt. % | Solubility ([2]; DMF/HOAc/H2O 67:24:9 by volume): 0.3 wt. % | Solubility ([2]; EtOH): 0.1 wt. % | Solubility ([2]; EtOH/HOAc/H2O 67:24:9 by volume): 1 wt. % | Solubility ([2]; HOAc): 2.8 wt. % | Solubility ([2]; HOAc/HOAc/H2O 67:24:9 by volume): 2.1 wt. % | Solubility ([2]; MeOH): 0.2 wt. % | Solubility ([2]; MeOH/HOAc/H2O 67:24:9 by volume): 0.4 wt. % | Solubility ([2]; MeTHF): 0.3 wt. % | Solubility ([2]; MeTHF/HOAc/H2O 67:24:9 by volume): 2.7 wt. % | Solubility ([2]; PhMe): 0.1 wt. % | Solubility ([2]; THF): 0.7 wt. % | Solubility ([2]; THF/HOAc/H2O 67:24:9 by volume): 3.7 wt. % | Solubility ([2]; Toluene/HOAc/H2O 67:24:9 by volume): 3.8 wt. % | Solubility ([2]; i-BuOH): 0.1 wt. % | Solubility ([2]; i-BuOHHOAcH2O 67:24:9 by volume): 2.1 wt. % | Solubility ([2]; n-BuOH): 0.1 wt. % | Solubility ([2]; n-BuOH/HOAc/H2O 67:24:9 by volume): 2.4 wt. % | Solubility ([2]; n-PrOH): 0.1 wt. % | Solubility ([2]; n-PrOH/HOAc/H2O 67:24:9 by volume): 1.8 wt. % | inhibition at 1 µM (CDK5/p25): 0.3% | inhibition at 1 µM (CK1_gamma3): -0.2% | inhibition at 1 µM (CamKIV): 0.2% | inhibition at 1 µM (EphA2): -0.7% | inhibition at 1 µM (Flt1): 0.6% | inhibition at 1 µM (GSK3_beta): 1% | inhibition at 1 µM (MST2): -2% | inhibition at 1 µM (PAK2): 3% | inhibition at 1 µM (Ron): 8%
